Experimental data as given in patent publication US20120202296A1, “SYSTEM, METHOD, AND APPARATUS FOR MEASURING AFFINITY CONSTANTS” (The Trustees of Columbia University in the City of New York, priority 2011, published 2012).

Key:
[1] = test system: ds biotinylated-DNA (90 bp) containing an EcoR1 recognition sequence; assay: Time-resolved second harmonic (SH) signal on adding EcoR1 to DNA-coated microparticles; format: binding; conditions: PSC-DNA microparticles
From the text: A particular example of how to use the above quantification method and system was experimentally validated as follows. An experimental apparatus was used to measure a time-resolved SH signal that was similar to that described in Yan E C Y, Liu Y, Eisenthal K B (1998) “New method for determination of surface potential of microscopic particles by second harmonic generation.” J Phys Chem B 102:6331-6336 which is hereby incorporated by reference in its entirety. A Princeton Instruments CCD camera was used to acquire light samples. The fundamental laser frequency was centered at 810 nm with approximately 400 mW of average power and a pulse width of approximately 75 femtoseconds (10^−15 sec.; fs). […] Polystyrene carboxylate (PSC) microparticle-DNA bioconjugate particles were prepared in an analogous way to previous synthetic reports.
FIG. 1A is a figurative illustration of the resulting particles 6. A biotin binding protein 18, NeutrAvidin (NA), is linked to the PSC surface (diameter ¼ 1.0 μm, Invitrogen). A PSC-NA solution with a concentration of 5.6×10^9 particles/mL, was suspended in water at pH ¼ 7.5. To this solution ds biotinylated-DNA 12 (90 bp, Integrated DNA Technologies) containing an EcoR1 recognition sequence 8, which is 15 bp from the end attached to the microparticle, was added to a DNA concentration of 0.69 nM and incubated at 55° C. for 1 h. […]

[2] = test system: control DNA (6-bp EcoR1 recognition sequence altered); assay: Time-resolved SH signal control experiment with DNA whose recognition sequence is altered; format: binding; conditions: control DNA without EcoR1 recognition sequence

In the case of “EcoR1: restriction enzyme that binds its DNA recognition sequence, bends and cleaves the DNA”, the “jump of the SH signal when EcoR1 is added” value ([1]; 2 mM NaCl) is reported as 9.5%, the “jump of the SH signal when EcoR1 is added” value ([1]; NaCl concentration 8.50 mM, NaCl in place of Mg2+) is reported as 30% and the “jump in the SH signal when EcoR1 is added” value [2] is reported as “did not show any jump in the SH signal”.
